The text below walks through data of patent publication US6262123A, “Ortho-substituted benzoylguanidines, process for their preparation, their use as a medicament or diagnostic, and medicament comprising them” (Aventis Pharma Deutschland GmbH, priority 1996, dated 2001).

Counter-ions that a name gives are not always drawn.

T1 sequence (P23791 whole entry): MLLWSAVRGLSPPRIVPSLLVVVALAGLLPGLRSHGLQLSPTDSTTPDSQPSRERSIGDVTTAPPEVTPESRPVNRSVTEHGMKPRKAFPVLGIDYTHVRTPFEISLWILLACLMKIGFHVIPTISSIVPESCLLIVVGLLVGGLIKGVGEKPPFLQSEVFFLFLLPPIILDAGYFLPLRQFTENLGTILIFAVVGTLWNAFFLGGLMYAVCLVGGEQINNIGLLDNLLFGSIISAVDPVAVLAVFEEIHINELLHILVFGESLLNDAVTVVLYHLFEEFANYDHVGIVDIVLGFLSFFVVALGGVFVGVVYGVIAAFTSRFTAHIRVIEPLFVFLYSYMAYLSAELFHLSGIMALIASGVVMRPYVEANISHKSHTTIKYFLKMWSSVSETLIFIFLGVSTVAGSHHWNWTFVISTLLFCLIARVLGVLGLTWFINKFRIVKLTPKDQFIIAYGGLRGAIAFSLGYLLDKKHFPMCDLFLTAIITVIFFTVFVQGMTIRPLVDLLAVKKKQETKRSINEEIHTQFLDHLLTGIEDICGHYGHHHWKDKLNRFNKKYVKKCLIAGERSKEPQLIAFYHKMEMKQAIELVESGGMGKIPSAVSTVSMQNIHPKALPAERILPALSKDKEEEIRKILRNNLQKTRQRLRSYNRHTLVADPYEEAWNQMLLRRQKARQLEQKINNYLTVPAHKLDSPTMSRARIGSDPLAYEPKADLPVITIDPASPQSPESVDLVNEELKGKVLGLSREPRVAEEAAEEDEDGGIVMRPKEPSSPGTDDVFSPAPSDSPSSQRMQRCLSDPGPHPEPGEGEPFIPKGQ

This test addresses T1, rabbit erythrocyte Na^+ /H^+ exchanger (Oryctolagus cuniculus, UniProt P23791).
T1 construct: determine the Na^+ influx into the erythrocytes by way of Na^+ /H^+ exchange; endogenous in cells; host or cells: erythrocytes in whole blood of cholesterol-fed New Zealand White rabbits
Put plainly: Inhibition of the rabbit erythrocyte Na^+ /H^+ exchanger (amiloride-sensitive Na^+ influx, flame photometry). The test is classed as cell-based, New Zealand White rabbits. Conditions: erythrocytes of cholesterol-fed rabbits; pH 7.4, 37° C., hyperosmolar salt/sucrose medium. An excerpt:
Inhibition of the rabbit erythrocyte Na^+ /H^+ exchanger New Zealand White rabbits (Ivanovas) were given a standard diet containing 2% cholesterol for six weeks in order to activate the Na^+ /H^+ exchange and thereby render it possible to use flame photometry to determine the Na^+ influx into the erythrocytes by way of Na^+ /H^+ exchange. The blood was withdrawn from the aural arteries and rendered incoagulable by adding 25 IU of potassium heparin. One part of each sample was used for determining the hematocrit in duplicate by means of centrifugation. Aliquots of in each case 100 μl were used for measuring the initial Na^+ content of the erythrocytes.
In order to determine the amiloride-sensitive sodium influx, 100 μl of each blood sample were in each case incubated, at pH 7.4 and 37° C., in 5 ml of a hyperosmolar salt/sucrose medium (mmol/l: 140 NaCl, 3 KCl, 150 sucrose, 0.1 ouabain, 20 tris(hydroxymethyl)aminomethane). After that, the erythrocytes were washed three times with an ice-cold solution of MgCl2 /ouabain (mmol/l: 112 MgCl2, 0.1 ouabain) and hemolyzed in 2.0 ml of distilled water. The intracellular sodium content was determined by flame photometry.
The net influx of Na^+ was calculated from the difference between the initial sodium values and the sodium content of the erythrocytes after incubation. The amiloride-inhibitable sodium influx was obtained from the difference in the sodium content of the erythrocytes after incubating with and without 3×10^-4 mol/l amiloride. The same procedure was adopted in the case of the novel compounds.
What is called IC50 is the concentration that inhibits the measured activity by half. With `NC(N)=NC(=O)c1cc(C(F)(F)F)c(O)cc1Cl` [Example 4, 2-Chloro4-hydroxy-5-trifluoromethylbenzoylguanidine hydrochloride], the IC50 worked out at 140 nM. For the compound `NC(N)=NC(=O)c1ccc(O)cc1Cl` [Example 1, 2-Chloro4-hydroxybenzoylguanidine hydrochloride], the IC50 is 4000 nM. Turning to `NC(N)=NC(=O)c1cc(I)c(O)cc1Cl` [Example 2, 2-Chloro-4-hydroxy-5-iodobenzoylguanidine hydrochloride], the IC50 amounted to 240 nM. In the case of `NC(N)=NC(=O)c1cc(I)c(O)c(I)c1Cl` [Example 3, 2-Chloro4-hydroxy-3,5-diiodobenzoylguanidine hydrochloride], the IC50 came to 100 nM.
